From US4139531A, “1-Nitro-9-alkylaminoalkylaminoacridines and salts thereof” (Politechnika Gdanska, priority 1976, dated 1979)
Values joined by “and” are separate entries in the source; they are usually repeats but may differ in a detail not shown here. Identical values can stand only once.

Columns and labels:
[1] = tested on: Crocker mice sarcoma (Sa-180); assay: Growth inhibition of the Crocker mice sarcoma (Sa-180); assay type: in vivo; settings: dosage of 0.2 mg/kg, intraperitoneally, dihydrochloride
Procedure: The growth inhibition of the Crocker mice sarcoma (Sa-180).
For this investigation, mice of about three months in age and a weight of about 25 g were used. These animals were inoculated with a section of the neoplasm (Sa-180) and were divided into groups: the first of control - 10 mice; and two to four groups of "under treatment" ones (seven mice each).
The compounds investigated were administered intraperitoneally in appropriate doses, after previous determination of the maximum tolerance dosage.
A criterion of the evaluation the anti-neoplastic activity of the compounds tested was accepted wherein the percent difference between mean weights of the nodules (tumours) of control mice and of those which received the preparations, taking into account the toxic effects.

[2] = tested on: small intestine; muscular coat of the urinary bladder; assay: Spasmolytic activity in vivo, small intestine and urinary bladder of rabbit and cat; settings: intravenous, dosages of more than 5 mg/kg
Local irritating action = assay type: in vivo
[3] = Maximum tolerance dosage (MTD), mouse; settings: in vivo
Procedure: (§1) Moreover, the maximum tolerance dosage (MTD) for mice and rats was determined (in mg/kg), as follows: […]

[4] = tested on: isolated small intestine of rat; assay: Spasmolytic activity, isolated small intestine of rat; settings: concentration of 10^-5
rats = assay: Reproduction and offspring development in rats; assay type: in vivo
[5] = Acute toxicity, LD50, rat; settings: in vivo, observations over 72 hours
Procedure: (§2) The biological activity analysis was supported by detailed pharmacologic examinations. After observations made over 72 hours, it was determined that the LD50 -value for the preparation C-846 for mice and rats (in mg/kg), was as follows: […]

rats and rabbits = assay: Prolonged (three-month) toxicity investigations on rats and rabbits; assay type: in vivo
Procedure: Prolonged investigations were carried out on rats and rabbits during the whole three-month-exposition period of time, introducing dosages corresponding to 1/150, 1/100 and 1/50 of the LD50 -value. This last dosage was a dosage which was maximally tolerated during this period of time.

rabbits and cats = assay: Arterial blood pressure, respiratory function, electrocardiogram and lethal dosage in rabbits and cats; assay type: in vivo
[6] = Maximum tolerance dosage (MTD), rat; settings: in vivo
Procedure: as §1

[7] = Acute toxicity, LD50, mouse; settings: in vivo, observations over 72 hours
Procedure: as §2

central nervous system = assay type: in vivo, mice
[8] = tested on: isolated small intestine of guinea-pig; assay: Spasmolytic activity, isolated small intestine of guinea-pig; settings: concentration 5 × 10^-6
[9] = large dosages, more than 8 mg/kg
[10] = rabbits and cats, intraperitoneal, dosages up to 10 mg/kg

With CCNCCCNc1c2ccccc2nc2cccc([N+](=O)[O-])c12.Cl.Cl [Example C-845, 1-nitro-9-ethylaminopropylaminoacridine dihydrochloride] the “inhibition values of Crocker's sarcoma (Sa-180)” value [1] was 48% and 49% and 57%.
With CC(C)NCCCNc1c2ccccc2nc2cccc([N+](=O)[O-])c12.Cl.Cl [Example C-846, 1-nitro-9-isopropylaminopropylaminoacridine dihydrochloride] the “spasmolytic activity regarding the small intestine and the muscular coat of the urinary bladder” value [2] was “such an activity”, the local irritating action (Local irritating action; concentrations of from 0.05 to 1.0%) was “exerted a local irritating action” and the “local changes caused by the intravenous injection” value (Local irritating action; phosphate buffer solution at pH 7 as solvent) was “could be eliminated”. For the same compound, the MTD ([3]; iv) was 1.85 mg/kg, the MTD ([3]; po) was 27.2 mg/kg and the “muscular tension and spontaneous intestine peristalsis (spasmolytic activity)” value [4] was “a decrease was noted in the muscular tension and an atrophy of spontaneous intestine peristalsis”. For the same compound, the “amount of infant animals in the brood” value (rats) was “decreased”, the “capacity to conceive or induce conception / ability of females to become pregnant” value (rats) was “did not inhibit” and the macroscopic malformations (rats) was “no macroscopic malformations were observed”. For the same compound, the “ontogenetic development of infant animals” value (rats) was “retarded”, the LD50 at 72 h ([5]; iv) was 0.95 ± 0.1 mg/kg and the LD50 at 72 h ([5]; po) was 127 ± 17.8 mg/kg. The blood coagulation time (rats and rabbits; in the third month) was “a certain prolongation was noted”, the “histology, germinal epithelium / testicles” value (rats and rabbits; in vivo) was “some degenerative lesions appeared in a range of the germinal epithelium, in the range of testicles” and the “histology, intestinal epithelium and glandular texture” value (rats and rabbits; in vivo) was “a desquamation (desfoliation) of the intestinal epithelium and an atrophy of the glandular texture”. The “histology, lymphatic system” value (rats and rabbits; in vivo) was “a decrease in the amount of the reproductive centers was noted, as well as a decrease in the amount of the small lymphocytes”, the “histology, other internal organs” value (rats and rabbits; in vivo) was “did not show any other microscopic changes” and the “histology, spermatogenesis” value (rats and rabbits; in vivo) was “some disturbances in spermatogenesis, a decrease in the amount of sperm cells”. The “activity of the acid phosphatase” value (rats and rabbits; only after the highest dosages, prolonged time of exposition) was “increase in activity of the acid phosphatase was observed”, the “hepatic functional tests (AlAt, AspAt, acid and alkaline phosphatases, thymol turbidity test)” value (rats and rabbits; rats and rabbits, three months) was “did not show an occurrence of any pathologic lesions” and the “influence on the peripheral blood or medular hematopoietic system” value (rats and rabbits; rats and rabbits, three months) was “could not be proved, that the preparation had influence”. For the same compound, the “renal tests (creatinine clearance, glomerular filterability)” value (rats and rabbits; rats and rabbits, three months) was “did not show any deviation from the norm”, the “dosage maximally tolerated during three months” value (rats and rabbits; rats and rabbits, three-month exposition) was 1/50 and the “effect on blood pressure” value (rabbits and cats; intravenous injection, 2 mg/kg) was “insignificant and transient hypotony”. For the same compound, the effect on respiration (rabbits and cats; intravenous injection, 2 mg/kg) was “instinctive acceleration of deepened respiration”, the PQ segment (rabbits and cats; [9]) was “prolongation of the PQ segment” and the QRS-Complex (rabbits and cats; [9]) was “dilation of the QRS-Complex”. The changes in electrocardiograms (rabbits and cats; [9]) was “transient changes in electrocardiograms were noted, due to the disturbances of the atrio-ventricular and intra-ventricular conductivity”, the “effects of the lethal dosages” value (rabbits and cats; rabbits and cats, about 15 mg/kg, i.v.) was “permanent hypotony and respiration disturbances or even apnoea” and the lethal dosages (rabbits and cats; rabbits and cats, i.v.) was ~15 mg/kg. For the same compound, the “effect on the arterial blood pressure” value (rabbits and cats; [10]) was “did not have any effect”, the “effect on the respiratory function” value (rabbits and cats; [10]) was “did not have any effect” and the MTD ([6]; iv) was 0.63 mg/kg. For the same compound, the MTD ([6]; po) was 75 mg/kg, the LD50 at 72 h ([7]; iv) was 2.2 ± 0.1 mg/kg and the LD50 at 72 h ([7]; po) was 126 ± 24.7 mg/kg. The “influence on spontaneous and forced motor activity” value (central nervous system; mice, dosages up to 1/10 LD50) was “did not influence in such dosages in essential manner”, the “influence on the action of hypnotic agents (luminal, chloral hydrate) and of convulsant agents (Cardiazol, strychnine)” value (central nervous system; mice, dosages up to 1/10 LD50) was “did not influence” and the “activity on the central nervous system” value (central nervous system; mouse, in vivo) was “did not demonstrate any evident and oriented activity”. For the same compound, the “muscular tension and spontaneous intestine peristalsis (spasmolytic activity)” value [8] was “a decrease was noted in the muscular tension and an atrophy of spontaneous intestine peristalsis”.
